The source of these data is ChEMBL document CHEMBL1149452 (J Med Chem, 2006).

Molecules are shown by their SMILES.

The first assay has as its target T1, 17-beta-hydroxysteroid dehydrogenase type 1 (Homo sapiens) (UniProt P14061).
T1 sequence (whole entry): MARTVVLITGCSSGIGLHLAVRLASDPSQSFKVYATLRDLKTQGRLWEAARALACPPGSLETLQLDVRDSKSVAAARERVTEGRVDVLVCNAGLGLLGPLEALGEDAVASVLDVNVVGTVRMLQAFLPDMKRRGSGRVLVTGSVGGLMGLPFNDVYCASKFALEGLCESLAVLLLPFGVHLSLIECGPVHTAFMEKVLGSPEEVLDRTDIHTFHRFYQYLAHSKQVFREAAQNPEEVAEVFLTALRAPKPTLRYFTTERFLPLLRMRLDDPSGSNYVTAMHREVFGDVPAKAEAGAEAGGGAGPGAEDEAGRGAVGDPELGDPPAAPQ
Nature of the assay: (§1) Inhibition of 17-beta HSD1 in T47D cells. Format: functional, cell-based.
The term IC50 denotes the concentration that gives 50% inhibition. On to `C[C@]12CCC3c4ccc(O)cc4C(=O)CC3C1CC(C=O)=C2O` (stereo not given in full), for which 700 nM corresponded to half-maximal inhibition (IC50).

In a further assay the target is T2, 17-beta-hydroxysteroid dehydrogenase type 1 (Homo sapiens, UniProt P14061).
T2 sequence (P14061 whole entry): T1 sequence (whole entry)
The description is as §1. Format: functional, cell-based.
`C[C@]12CC[C@@H]3c4ccc(O)cc4CC[C@H]3[C@@H]1CC(CC(=O)NCC1CCCO1)C2=O` (stereo not given in full) gave an IC50 of 380 nM.

In the case of `C[C@]12CC[C@@H]3c4ccc(O)cc4CC[C@H]3[C@@H]1CC(C(=O)NCc1cccnc1)[C@@H]2O` (stereo not given in full), the IC50 is 510 nM.

Consider `C[C@]12CC[C@@H]3c4ccc(O)cc4/C(=N\O)C[C@H]3[C@@H]1CC/C2=N\O`, for which the half-inhibitory concentration (IC50) amounted to 1900 nM.

As to `C[C@]12CC[C@@H]3c4ccc(O)cc4C(=O)C[C@H]3[C@@H]1CCC2=O`, the IC50 was determined as 340 nM.

Consider `C[C@]12CC[C@@H]3c4ccc(O)cc4CC[C@H]3[C@@H]1C/C(=C\c1ccncc1)[C@@H]2O`, for which inhibition was half-maximal at 4100 nM (IC50).

`CC(NC(=O)C1C[C@H]2[C@@H]3CCc4cc(O)ccc4[C@H]3CC[C@]2(C)[C@H]1O)c1ccccc1` (stereo not given in full): the half-maximal inhibitory concentration (IC50) was determined as 810 nM.

`CCOC(=O)CC1C[C@H]2[C@@H]3CCc4cc(O)ccc4[C@H]3CC[C@]2(C)C1=O` (stereo not given in full) registered an IC50 of 300 nM.

On to `CCOC[C@H]1C[C@H]2[C@@H]3CCc4cc(O)ccc4[C@H]3CC[C@]2(C)C1=O`, for which the IC50 worked out at 320 nM.

As to `CNC(=O)CC1C[C@H]2[C@@H]3CCc4cc(O)ccc4[C@H]3CC[C@]2(C)C1=O` (stereo not given in full), half-maximal inhibition (IC50) was put at 1500 nM.
